Data reported in publication PMC10584003 (The Journal of Clinical Endocrinology and Metabolism, 2023).
“Also recorded” adds a separate entry of the source.

Experiments:
[1] = system: GLP-1R variants E34*, H99Qfs*83, S155F, F169Sfs*13, and T353M; experiment: Homologous competition binding, 5 LoS variants without binding; set-up: species or system human; conditions: COS-7 cells, 125I-GLP-1(7-36)NH2, LoS variants E34*, F169Sfs*13, T353M
GLP-1R R310W = conditions: top of transmembrane helix 5, agonist not given, ref [45]; cited from earlier work
[2] = system: GLP-1R P7L, R131Q, G168S, and A316T; experiment: GLP-1R signaling, variants P7L, R131Q, G168S, A316T; format: cell-based, human; conditions: present study, COS-7 and HEK-293 cells
GLP-1R A316T [3] = conditions: A316T variant; agonist not given; ref [49]; cited from earlier work
[4] = system: GLP-1R, alanine at position 155; conditions: ref [46]; cited from earlier work
[5] = system: GLP-1R variants E34*, W87R, H99Qfs*83, S155F, F169Sfs*13, R310W, and T353M; experiment: β-arrestin 2 recruitment; format: cell-based, human; conditions: HEK293 cells, BRET with GRK6, LoS variants E34*
GLP-1R R421C = conditions: naturally occurring variant R421C; agonist not given; ref [42]; cited from earlier work
[6] = system: GLP-1R, alanine at position 87; conditions: ref [44]; cited from earlier work
[7] = system: GLP-1R, alanine at position 87; conditions: ref [44]; cited from earlier work; remark: listed apart in the source
GLP-1R A316T [8] = conditions: A316T variant; agonist not given; ref [49]; cited from earlier work; remark: listed apart in the source
[9] = system: GLP-1R, alanine at position 155; conditions: ref [46]; cited from earlier work; remark: listed apart in the source
[10] = system: 26 WT-like GLP-1R variants; experiment: β-arrestin 2 recruitment; format: cell-based, human; conditions: HEK293 cells, BRET with GRK6, 26 WT-like variants
[11] = system: 26 WT-like GLP-1R variants; experiment: cAMP measurement; format: cell-based, human; conditions: COS-7 cells
[12] = system: GLP-1R variants S79L, R421W, and A449V; experiment: β-arrestin 2 recruitment; format: cell-based, human; conditions: HEK293 cells, BRET with GRK6, LoS variants S79L
[13] = system: GLP-1R, alanine at position 353; conditions: alanine mutation at position 353; ref [46]; cited from earlier work
[14] = system: GLP-1R variants S79L, W87R, R310W, R421W, and A449V; experiment: Homologous competition binding, 5 LoS variants with maintained binding; set-up: species or system human; conditions: COS-7 cells
GLP-1R F321S and F66L = experiment: cAMP signaling, variants F66L and F321S; format: cell-based, human; conditions: COS-7 cells, predicted pLoF

**Q.** For glucagon-like peptide 1 [GLP-1], which “receptor binding, result in words” value [1] is on record?
**A.** Its value is “complete loss of binding; also recorded: no GLP-1 binding”.

**Q.** And the “efficacy, R310W, result in words” value (GLP-1R R310W)?
**A.** Its value is “reduce efficacy”.

**Q.** And the “GLP-1R signaling, result in words” value [2]?
**A.** The value was “WT-like GLP-1R signaling”.

**Q.** What about the “signaling and binding, A316T, result in words” value (GLP-1R A316T [3]) of the same substance?
**A.** Its value is “WT-like signaling and binding properties”.

**Q.** And the “cAMP production, alanine at position 155, result in words” value [4]?
**A.** The value was “affected cAMP production”.

**Q.** What about the “β-arrestin 2 recruitment, result in words” value [5] of the same substance?
**A.** The value was “completely lost β-arrestin 2 recruitment”.

**Q.** And the “cAMP signaling, R421C, result in words” value (GLP-1R R421C)?
**A.** Its value is “no effect on cAMP signaling”.

**Q.** And the “cAMP signaling, alanine at position 87, result in words” value [6]?
**A.** The value was “no altered GLP-1 binding or cAMP signaling”.

**Q.** What about the “GLP-1 binding, alanine at position 87, result in words” value [7] of the same substance?
**A.** Its value is “no altered GLP-1 binding”.

**Q.** What about the “β-arrestin recruitment, A316T” value (GLP-1R A316T [8]) of the same substance?
**A.** The value was 18 % of WT.

**Q.** What about the “GLP-1 affinity, alanine at position 155, result in words” value [9] of the same substance?
**A.** Its value is “affected cAMP production and GLP-1 affinity”.

**Q.** What about the “β-arrestin 2 recruitment, result in words” value [10] of the same substance?
**A.** Its value is “WT-like β-arrestin 2 recruitment”.

**Q.** And the “β-arrestin 2 recruitment average Emax” value ([10]; average, ± 6.6% (SEM))?
**A.** Its value is 90.2 % of WT.

**Q.** And the “change in cAMP potency vs WT (WT-like criterion)” value ([11]; 26 WT-like variants, EC50 change vs WT)?
**A.** The value was < 5 fold.

**Q.** And the “cAMP Emax (WT-like criterion)” value ([11]; 26 WT-like variants, Emax of at least 50% of the WT Emax)?
**A.** The value was “at least 50 % of the WT Emax”.

**Q.** What about the “cAMP production, result in words” value ([11]; 26 variants, compared to WT) of the same substance?
**A.** The value was “cAMP production similar to WT GLP-1R”.

**Q.** What about the “β-arrestin 2 recruitment, result in words” value [12] of the same substance?
**A.** Its value is “maintained β-arrestin 2 recruitment”.

**Q.** And the “cAMP production, alanine at position 353, result in words” value [13]?
**A.** The value was “altered cAMP production”.

**Q.** And the “GLP-1 binding, result in words” value [14]?
**A.** Its value is “maintained GLP-1 binding”.

**Q.** What about the “cAMP signaling, result in words” value (GLP-1R F321S and F66L) of the same substance?
**A.** Its value is “normal cAMP signaling”.
